# Assays:
# [1] = test system: cortisol, TSH, T4; assay: Blood cortisol, TSH and T4 in healthy human volunteers, Example 5a; format: in vivo
# Method: Blood levels of cortisol, thyroid stimulating hormone (TSH) and thyroxin, i.e. thyroid hormone T4 (T4) from standard EDTA blood sample were measured. 0-control and 2 day follow up measurement were conducted at approximately 08.55 am and the same day, 1.5 hour follow up, at 10:25 am. All measurements were conducted in “half fasting” state, i.e. half of the normal breakfast eaten 1.5 hours before the collection of the blood sample, and the other “half” immediately after 0-control measurement. First measurement without the DGA Activation served as the 0-control for both follow up measurements with the DGA Activation. First “DGA measurement” was conducted after 1.5 hours from 0-control (“fast effect”) and the second after 2 days (“persistent effect”). […] Last dose was 300 mg of D-glyceric acid mixed into water (or 430 mg of D-glyceric acid calcium salt dehydrate mixed into water), and otherwise the daily dose was 2*225 mg D-glyceric acid calcium salt dehydrate mixed into water. Male volunteers S1 and S9 weigh 75 kg and 80 kg respectfully.
# [2] = test system: rat primary optic nerve astrocytes; assay: Cell viability (MTT and LDH assays) of rat primary optic nerve astrocytes; format: cell-based
# Method: For proving the efficacy of DGA Activation in reducing ROS in infectious disorders an in vitro study using rat primary optic nerve astrocytes has been conducted. […] As an important part of the study the cell viability was estimated 6 hours after tBHP administration by two methods, i.e. LDH and MTT assays. Cell viability was measured using the in-house MTT assay (of Experimentica Ltd., Finland) and CytoTox96 non-radioactive cytotoxicity assay (G1780, Promega) in response to oxidative stress primary optic nerve astrocytes. The production of reactive oxygen species (ROS) was measured using CellROX Green (Invitrogen) and isolate RNA in RNALater solution (Ambion). Prior study preparations to find suitable tBHP concentration: The astrocytes where seeded at 5000 cells per well and allowed to grow for 48 hrs to mimic the study. On day 2 the medium was removed and the cells were exposed to a dose response range of tBHP in fresh medium for 6 hrs. The MTT and LDH assay were performed to assess cell survival using the Victor microplate reader. The raw data was given to patent applicant for assessment. […] After 24 hrs the compounds were removed, and readded with new medium for 1 hr, prior to the administration of 85 μM tBHP (FIG. 3c). […]
# [3] = 4-day healthy human nutritional test, blood bilirubin; format: in vivo; conditions: 5-6 mg/kg/twice a day
# Method: S4 had already participated in 4-day healthy volunteer test with the DGA Activation. In that earlier non-acute DGA dosing experiment the last dose of D-glyceric acid mixed into water was received previous night, i.e. 10-12 hours before the blood test. In this test the positive effects of the DGA Activation in health/subclinical stress were observed. […] This was the case for all tested subjects including S1 in Examples 1b-1d (see Table 1e below).
# [4] = test system: HO-1, CYP2B6, PGC-1a; assay: Gene expression in primary human hepatocytes after 48 h+2 h; format: cell-based
# Method: FIG. 13b: Gene Expression results from Primary Hepatocytes after 48 h+2 h of the DGA Activation vs. 0-control. […] Combined test for PGC-1a yielded P-value of some 10%. Primary human hepatocytes were purchased from Celsis In Vitro Technologies (1450 South Rolling Road Baltimore, Md. 21227, USA). Primary hepatocytes were received from three different post mortem human donators. […] This is also the case for DOO.
# In this experimental model the cells in the 0-Control and in the two DGA Activation groups were normally and identically incubated before DGA Activation. Incubation the medium is changed every 24 hours. When the 48 hour+2 hour DGA Activation started, the only difference was the addition of either 1.4 μM or 14 μM of DGA to the used medium. The D-glyceric acid calcium salt was carefully mixed in to medium before the administration. Thus, it was separated from the calcium salt.
# [5] = test system: corticosterone, IL-6
# [6] = test system: acute upper respiratory infection (nose and throat); assay: Healing from acute upper respiratory infection in S1, Example 1c; format: in vivo, human
# Source text: After successful healing process in November 2014 (Example 1b), S1 was almost excited when they got acute upper respiratory infection when traveling abroad around New Year 2015. Symptoms: a virus infection in throat and rhinitis had lasted for three days before initiation of the DGA activation. S1 felt also feverish during this three-day period (unfortunately there was no thermometer around during the travel).
# Administration on the fourth day of the infection: In the morning at 0940 am S1 took 2×250 mg of D-glyceric acid calcium salt dehydrate mixed into the water. Now, swelling and aching of the throat was quite substantial like had been the case already on the previous night, also some fever was felt.
# At 0330 pm S1 took 2×180 mg of D-glyceric acid calcium salt mixed into water to keep the DGA Activation alive. Swelling had reduced a little but this could be due to circadian variation. Third dose of the day (2×180 mg) was received at 0915 pm. Throat continued to feel better towards the night, alleviation of the symptoms compared to the morning and to the previous night was significant.
# Next morning at 0715 1×200 mg was received. […] However, some swelling in the throat remained but no pain. On top of the DGA Activation 1×500 mg of paracetamol was received at 0840 am, mimicking combination medication like e.g. Tylenol Cold.
# Second 1×200 mg dose was received at 0200 pm. […]
# [7] = 1.4 μM, combined data, P-value approximately 1%
compound,measurement,setting,value
"O=C(O)[C@H](O)CO [DGA, D-glyceric acid]","TSH decline, fast effect",[1]; 1.5 hours,−24%
same,"decline of blood cortisol, fast effect","[1]; 1.5 hours after dose, both S1 and S9",more than 22%
same,"T4, average change from 0-control",[1]; S1 and S9,less than 1%
same,decrease in blood cortisol,[1]; S1 and S9,20-40%
same,TSH decline,[1]; after 2 days,−13%
same,cell viability after tBHP administration,"[2]; 85 μM tBHP, 6 hrs",clearly higher
same,cell viability compared to 0-controls,[2]; in health (0 μM tBHP) and in disease state (85 μM tBHP),increases in both
same,"S-Bil-Kj, 4 day change from zero control",[3]; subject S1,−17.4%
same,"S-Bil, 4 day change from zero control","[3]; subject S1, fasting blood, non-acute",−19.1%
same,"S-Bil, 4 day change from zero control",[3]; subject S2,−22.8%
same,"S-Bil-Kj, 4 day change from zero control",[3]; subject S2,−23.3%
same,"S-Bil, 4 day change from zero control",[3]; subject S3,−58.1%
same,"S-Bil-Kj, 4 day change from zero control",[3]; subject S3,−58.4%
same,"S-Bil, 4 day change from zero control",[3]; subject S4,−12.6%
same,"S-Bil-Kj, 4 day change from zero control",[3]; subject S4,−8.8%
same,CYP2B6 expression vs control,[4]; [7],statistically significantly different from control
same,HO-1 expression vs control,[4]; [7],statistically significantly different from control
same,PGC-1a expression vs control,[4]; combined test P-value of some 10%,activated compared to control
same,increase of HO-1 expression,[4]; primary human hepatocytes in vitro,50-80%
same,decline of blood corticosterone compared to 0-Control,"[5]; 9 mg/kg of body weight/day of DGAcs in feed, 3 weeks, N=30, p-value=0.021",~40%
same,fat formation,"[5]; 3-5 week feeding study, N=144",fat formation is not increased
same,average IL-6 levels compared to 0-control,"[5]; 21-28 days, not statistically significant, p-value=0.12",lower average IL-6 levels
same,late mortality,"[5]; earlier broiler chicken experiment without infection, 1-2% in other groups",no mortality in DGA groups
same,fever next morning,"[6]; S1, morning after first day of dosing",No fever was observed
same,time to conquer the acute upper respiratory infection,"[6]; S1, started on fourth day of infection, 2×250 mg then 2×180 mg doses",12 to 48 h

# From patent publication US20190008810A1, “METHOD FOR PREVENTION, TREATMENT AND ALLEVIATION OF INFECTIOUS DISEASES AND DISORDERS” (REPLICON HEALTH OY, priority 2016, published 2019)
